Measurements as given in patent US12454529B2, “Piperazine cyclic ureas” (SIRONAX LTD., priority 2020, dated 2025).

Test system: HT-29 cells
Assay: HT-29 cell necrosis/necroptosis inhibition (TNF-α + SMAC mimetic + zVAD-FMK; CellTiter-Glo cell viability)
Assay type: cell-based
Conditions: Homo sapiens, HT-29, 20 h, read-out: EC50 (Cell activity; Necrosis/Necroptosis Inhibitory Activity, Compounds 1-142)
Procedure, shortened: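 Necroptosis was driven by TNF-α 10 ng/ml plus SMAC mimetic 6 μM and zVAD-FMK 10 μM in serum-free medium, with compounds as a 10-point threefold titration. After 20 h at 37 °C, ATP-based luminescence was read; EC50 values are geometric means of duplicate curves.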

| Compound | EC50 [nM] |
| --- | --- |
| CCn1nc(C)c(-c2nc(N3CCN(C(=O)N4N=CC[C@H]4c4cc(F)cc(F)c4)CC3)ncc2F)c1C [Compound 117, (S)-(5-(3,5-difluorophenyl)-4,5-dihydro-1H-pyrazol-1-yl)(4-(4-(1-ethyl-3,5-dimethyl-1H-pyrazol-4-yl)-5-fluoropyrimidin-2-yl)piperazin-1-yl)methanone] | 0.1 to 100 |
| CCOC(=O)c1n[nH]c(C)c1-c1nc(N2CCN(C(=O)N3N=CC[C@H]3c3cc(F)cc(C#N)c3)CC2)ncc1F [Compound 73, ethyl (S)-4-(2-(4-(5-(3-cyano-5-fluorophenyl)-4,5-dihydro-1H-pyrazole-1-carbonyl)piperazin-1-yl)-5-fluoropyrimidin-4-yl)-5-methyl-1H-pyrazole-3-carboxylat] | 0.1 to 100 |

Same assay, conditions: Homo sapiens; HT-29 cells, TNF-α 10 ng/ml + SMAC mimetic 6 μM + zVAD-FMK 10 μM, 20 hours; geometric mean, 10 points in duplicate; read-out: EC50 (Cell activity; Necrosis/Necroptosis Inhibitory Activity, Compounds 1-142)

| Compound | EC50 [nM] |
| --- | --- |
| O=C(N1CCN(c2ncc(F)c(-c3n[nH]nc3I)n2)CC1)N1N=CC[C@H]1c1cc(F)cc(F)c1 [Compound 20, (S)-(5-(3,5-difluorophenyl)-4,5-dihydro-1H-pyrazol-1-yl)(4-(5-fluoro-4-(5-iodo-1H-1,2,3-triazol-4-yl)pyrimidin-2-yl)piperazin-1-yl)methanone] | 0.1 to 100 |
| N#Cc1cc(F)cc([C@@H]2CC=NN2C(=O)N2CCN(c3ncc(F)c(-n4cc(C#N)cn4)n3)CC2)c1 [Compound 127, (S)-1-(2-(4-(5-(3-cyano-5-fluorophenyl)-4,5-dihydro-1H-pyrazole-1-carbonyl)piperazin-1-yl)-5-fluoropyrimidin-4-yl)-1H-pyrazole-4-carbonitrile] | 0.1 to 100 |
| Cc1nn(CC(N)=O)nc1-c1nc(N2CCN(C(=O)N3N=CC[C@H]3c3cc(F)cc(C#N)c3)CC2)ncc1F [Compound 78, (S)-2-(4-(2-(4-(5-(3-cyano-5-fluorophenyl)-4,5-dihydro-1H-pyrazole-1-carbonyl)piperazin-1-yl)-5-fluoropyrimidin-4-yl)-5-methyl-2H-1,2,3-triazol-2-yl)acetamide] | 0.1 to 100 |
| COC(=O)c1cc(C)n(-c2nc(N3CCN(C(=O)N4N=CC[C@H]4c4cc(F)cc(F)c4)CC3)ncc2F)c1 [Compound 91, methyl (5)-1-(2-(4-(5-(3,5-difluorophenyl)-4,5-dihydro-1H-pyrazole-1-carbonyl)piperazin-1-yl)-5-fluoropyrimidin-4-yl)-5-methyl-1H-pyrrole-3-carboxylate] | 0.1 to 100 |
| Cc1nc(C)n(-c2cc(N3CCN(C(=O)N4N=CC[C@H]4c4cc(F)cc(F)c4)CC3)ncn2)n1 [Compound 90, (S)-(5-(3,5-difluorophenyl)-4,5-dihydro-1H-pyrazol-1-yl)(4-(6-(3,5-dimethyl-1H-1,2,4-triazol-1-yl)pyrimidin-4-yl)piperazin-1-yl)methanone] | 0.1 to 100 |
| Cc1ncc(-c2nc(N3CCN(C(=O)N4N=CC[C@H]4c4cc(F)cc(C#N)c4)CC3)ncc2F)s1 [Compound 57, (S)-3-fluoro-5-(1-(4-(5-fluoro-4-(2-methylthiazol-5-yl)pyrimidin-2-yl)piperazine-1-carbonyl)-4,5-dihydro-1H-pyrazol-5-yl)benzonitrile] | 0.1 to 100 |
| Cc1nnc(-c2nc(N3CCN(C(=O)N4N=CC[C@H]4c4cc(F)cc(C#N)c4)CC3)ncc2F)s1 [Compound 64, (S)-3-fluoro-5-(1-(4-(5-fluoro-4-(5-methyl-1,3,4-thiadiazol-2-yl)pyrimidin-2-yl)piperazine-1-carbonyl)-4,5-dihydro-1H-pyrazol-5-yl)benzonitrile] | 0.1 to 100 |
| O=C(N1CCN(c2ncc(F)c(-c3ccc[nH]c3=O)n2)CC1)N1N=CC[C@H]1c1cc(F)cc(F)c1 [Compound 87, (S)-3-(2-(4-(5-(3,5-difluorophenyl)-4,5-dihydro-1H-pyrazole-1-carbonyl)piperazin-1-yl)-5-fluoropyrimidin-4-yl)pyridin-2(1H)-one] | 0.1 to 100 |

Same assay, conditions: Homo sapiens; HT-29 cells, TNF-α 10 ng/ml + SMAC mimetic 6 μM + zVAD-FMK 10 μM, 20 hours; geometric mean, 10 points in duplicate; read-out: EC50 (Cell activity; Necrosis/Necroptosis Inhibitory Activity, Compounds 143-323)

| Compound | EC50 [nM] |
| --- | --- |
| Cc1cnc([C@@H]2CC=NN2C(=O)N2CCN(c3ncc(F)c(-c4nc(C#N)nn4C)n3)CC2)s1 [Compound 151, (S)-5-(5-fluoro-2-(4-(5-(5-methylthiazol-2-yl)-4,5-dihydro-1H-pyrazole-1-carbonyl)piperazin-1-yl)pyrimidin-4-yl)-1-methyl-1H-1,2,4-triazole-3-carbonitrile] | 0.1 to 100 |
| O=C(N1CCN(c2ncc(F)c(-n3cnc(C(F)(F)F)n3)n2)CC1)N1N=CC[C@H]1c1ccccc1 [Compound 312, (S)-(4-(5-fluoro-4-(3-(trifluoromethyl)-1H-1,2,4-triazol-1-yl)pyrimidin-2-yl)piperazinyl)(5-phenyl-4,5-dihydro-1H-pyrazol-1-yl)methanone] | 0.1 to 100 |
| Cn1nc(CO)nc1-c1nc(N2CCN(C(=O)N3N=CCC3c3cc(F)cc(F)c3)CC2)ncc1F (centres unmarked) [Compound 227, (5-(3,5-difluorophenyl)-4,5-dihydro-1H-pyrazol-1-yl)(4-(5-fluoro-4-(3-(hydroxymethyl)-1-methyl-1H-1,2,4-triazol-5-yl)pyrimidin-2-yl)piperazin-1-yl)methanone] | 0.1 to 100 |
| Cc1nnc(-c2nc(N3CCN(C(=O)N4N=CC[C@H]4c4cc(F)cc(C#N)c4)CC3)ccc2F)s1 [Compound 172, (S)-3-fluoro-5-(1-(4-(5-fluoro-6-(5-methyl-1,3,4-thiadiazol-2-yl)pyridin-2-yl)piperazine-1-carbonyl)-4,5-dihydro-1H-pyrazol-5-yl)benzonitrile] | 0.1 to 100 |
| Cc1ncn(-c2nc(N3CCN(C(=O)N4N=CC[C@H]4c4cc(F)cc(F)c4)CC3)ncc2F)n1 [Compound 235, (S)-(5-(3,5-difluorophenyl)-4,5-dihydro-1H-pyrazol-1-yl)(4-(5-fluoro-4-(3-methyl1H-1,2,4-triazol-1-yl)pyrimidin-2-yl)piperazin-1-yl)methanone] | 0.1 to 100 |
| Cc1ncn(-c2nc(N3CCN(C(=O)N4N=CC[C@H]4c4ccccc4)CC3)ncc2F)n1 [Compound 309, (S)-(4-(5-fluoro-4-(3-methyl-1H-1,2,4-triazol-1-yl)pyrimidin-2-yl)piperazin-1-yl)(5-phenyl-4,5-dihydro-1H-pyrazol-1-yl)methanone] | 0.1 to 100 |
| Cc1cnn(C)c1-c1cc(N2CCN(C(=O)N3N=CC[C@H]3c3cc(F)cc(F)c3)CC2)c(F)cn1 [Compound 149, (S)-(5-(3,5-difluorophenyl)-4,5-dihydro-1H-pyrazol-1-yl)(4-(2-(1,4-dimethyl-1H-pyrazol-5-yl)-5-fluoropyridin-4-yl)piperazin-1-yl)methanone] | 0.1 to 100 |
| Cc1nnc(-c2nc(N3CCN(C(=O)N4N=CC[C@H]4c4cc(F)cc(F)c4)CC3)ncc2F)o1 [Compound 187, (S)-(5-(3,5-difluorophenyl)-4,5-dihydro-1H-pyrazol-1-yl)(4-(5-fluoro-4-(5-methyl-1,3,4-oxadiazol-2-yl)pyrimidin-2-yl)piperazin-1-yl)methanone] | 0.1 to 100 |
| Cc1nc(C2CC=NN2C(=O)N2CCN(c3ncc(F)c(-c4nnc(C)s4)n3)CC2)co1 (centres unmarked) [Compound 209, (4-(5-fluoro-4-(5-methyl-1,3,4-thiadiazol-2-yl)pyrimidin-2-yl)piperazin-1-yl)(5-(2-methyloxazol-4-yl)-4,5-dihydro-1H-pyrazol-1-yl)methanone] | 100 to 1000 |
| Cc1nn(-c2cc(N3CCN(C(=O)N4N=CC[C@H]4c4cc(F)cc(C#N)c4)CC3)ncn2)c(C)c1C#N [Compound 279, (S)-1-(6-(4-(5-(3-cyano-5-fluorophenyl)-4,5-dihydro-1H-pyrazole-1-carbonyl)piperazin-1-yl)pyrimidin-4-yl)-3,5-dimethyl-1H-pyrazole-4-carbonitrile] | 0.1 to 100 |
